Results published in PMC8800111 (The Journal of Biological Chemistry, 2021).

Assays:
Assay type in all cases: cell-based
[1] = target: proteins of U3A human fibrosarcoma cells (4462 proteins detected) (Homo sapiens, UniProt Q7L5Y9); conditions: protein MAEA; U3A cells
[2] = target: proteins of U3A human fibrosarcoma cells (4462 proteins detected) (Homo sapiens, UniProt Q6GYQ0); conditions: protein RALGAPA1; U3A, 10 μM, 2 h
[3] = target: proteins of U3A human fibrosarcoma cells (4462 proteins detected) (Homo sapiens, UniProt Q9H900); conditions: protein ZWILCH; U3A cells
[4] = target: proteins of U3A human fibrosarcoma cells (4462 proteins detected) (Homo sapiens, UniProt Q9HD33); conditions: protein MRPL47; U3A cells
[5] = target: proteins of U3A human fibrosarcoma cells (4462 proteins detected) (Homo sapiens, UniProt P35244); conditions: protein RPA3; soluble abundance after heat, U3A cells
[6] = target: proteins of U3A human fibrosarcoma cells (4462 proteins detected) (Homo sapiens, UniProt Q13596); conditions: protein SNX1; U3A cells
[7] = target: proteins of U3A human fibrosarcoma cells (4462 proteins detected) (Homo sapiens, UniProt P35250); conditions: protein RFC2; U3A cells
[8] = target: proteins of U3A human fibrosarcoma cells (4462 proteins detected) (Homo sapiens, UniProt P78347); conditions: protein GTF2I; U3A cells
[9] = target: proteins of U3A human fibrosarcoma cells (4462 proteins detected) (Homo sapiens, UniProt Q9Y3C8); conditions: protein UFC1; U3A cells
[10] = target: proteins of U3A human fibrosarcoma cells (4462 proteins detected) (Homo sapiens, UniProt Q99873); conditions: protein PRMT1, U3A cells
[11] = target: proteins of U3A human fibrosarcoma cells (4462 proteins detected) (Homo sapiens, UniProt Q8NFH4); conditions: protein NUP37, U3A cells
[12] = target: proteins of U3A human fibrosarcoma cells (4462 proteins detected) (Homo sapiens, UniProt Q8NDC0); conditions: protein MAPK1IP1L; U3A cells
[13] = target: proteins of U3A human fibrosarcoma cells (4462 proteins detected) (Homo sapiens, UniProt Q15459); conditions: protein SF3A1; U3A cells
[14] = target: proteins of U3A human fibrosarcoma cells (4462 proteins detected) (Homo sapiens, UniProt Q9H4A6); conditions: protein GOLPH3; U3A cells
[15] = target: proteins of U3A human fibrosarcoma cells (4462 proteins detected) (Homo sapiens, UniProt Q8TDP1); conditions: protein RNASEH2C, U3A cells
[16] = target: proteins of U3A human fibrosarcoma cells (4462 proteins detected) (Homo sapiens, UniProt Q9UJ68); conditions: protein MSRA, U3A cells
[17] = target: proteins of U3A human fibrosarcoma cells (4462 proteins detected) (Homo sapiens, UniProt O75635); conditions: protein SERPINB7; U3A, 10 μM, 2 h
[18] = target: proteins of U3A human fibrosarcoma cells (4462 proteins detected) (Homo sapiens, UniProt Q8TEP8); conditions: protein CEP192; U3A, 10 μM, 2 h
[19] = target: proteins of U3A human fibrosarcoma cells (4462 proteins detected) (Homo sapiens, UniProt Q96FF9); conditions: protein CDCA5; U3A cells
[20] = target: proteins of U3A human fibrosarcoma cells (4462 proteins detected) (Homo sapiens, UniProt P35232); conditions: protein PHB; U3A cells
[21] = target: proteins of U3A human fibrosarcoma cells (4462 proteins detected) (Homo sapiens, UniProt O00159); conditions: protein MYO1C, U3A cells
[22] = target: proteins of U3A human fibrosarcoma cells (4462 proteins detected) (Homo sapiens, UniProt P14854); conditions: protein COX6B1, U3A cells
[23] = target: proteins of U3A human fibrosarcoma cells (4462 proteins detected) (Homo sapiens, UniProt P49756); conditions: protein RBM25; U3A cells
[24] = target: proteins of U3A human fibrosarcoma cells (4462 proteins detected) (Homo sapiens, UniProt P08670); conditions: protein VIM; U3A cells
[25] = target: proteins of U3A human fibrosarcoma cells (4462 proteins detected) (Homo sapiens, UniProt P78317); conditions: protein RNF4, U3A cells
[26] = target: proteins of U3A human fibrosarcoma cells (4462 proteins detected) (Homo sapiens, UniProt Q04721); conditions: protein NOTCH2, U3A cells
[27] = target: proteins of U3A human fibrosarcoma cells (4462 proteins detected) (Homo sapiens, UniProt Q9BYG3); conditions: protein NIFK; soluble abundance after heat, U3A cells
[28] = target: proteins of U3A human fibrosarcoma cells (4462 proteins detected) (Homo sapiens, UniProt Q9Y266); conditions: protein NUDC; U3A cells
[29] = target: proteins of U3A human fibrosarcoma cells (4462 proteins detected) (Homo sapiens, UniProt Q6N063); conditions: protein OGFOD2; U3A cells
[30] = target: proteins of U3A human fibrosarcoma cells (4462 proteins detected) (Homo sapiens, UniProt Q9UNX4); conditions: protein WDR3; U3A cells

Chain of proteins of U3A human fibrosarcoma cells (4462 proteins detected) (Homo sapiens, UniProt Q99873) (Q99873 whole entry): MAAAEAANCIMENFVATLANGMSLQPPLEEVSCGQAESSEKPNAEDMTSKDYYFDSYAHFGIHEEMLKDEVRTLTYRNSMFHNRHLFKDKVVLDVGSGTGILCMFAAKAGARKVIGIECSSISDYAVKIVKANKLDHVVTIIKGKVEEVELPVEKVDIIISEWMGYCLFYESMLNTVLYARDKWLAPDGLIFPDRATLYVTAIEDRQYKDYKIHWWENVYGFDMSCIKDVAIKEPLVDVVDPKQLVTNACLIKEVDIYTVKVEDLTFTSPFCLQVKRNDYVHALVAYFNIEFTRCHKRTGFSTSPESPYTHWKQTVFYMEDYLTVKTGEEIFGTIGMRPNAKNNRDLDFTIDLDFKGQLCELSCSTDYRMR
Chain of proteins of U3A human fibrosarcoma cells (4462 proteins detected) (Homo sapiens, UniProt Q6GYQ0) (Q6GYQ0 whole entry): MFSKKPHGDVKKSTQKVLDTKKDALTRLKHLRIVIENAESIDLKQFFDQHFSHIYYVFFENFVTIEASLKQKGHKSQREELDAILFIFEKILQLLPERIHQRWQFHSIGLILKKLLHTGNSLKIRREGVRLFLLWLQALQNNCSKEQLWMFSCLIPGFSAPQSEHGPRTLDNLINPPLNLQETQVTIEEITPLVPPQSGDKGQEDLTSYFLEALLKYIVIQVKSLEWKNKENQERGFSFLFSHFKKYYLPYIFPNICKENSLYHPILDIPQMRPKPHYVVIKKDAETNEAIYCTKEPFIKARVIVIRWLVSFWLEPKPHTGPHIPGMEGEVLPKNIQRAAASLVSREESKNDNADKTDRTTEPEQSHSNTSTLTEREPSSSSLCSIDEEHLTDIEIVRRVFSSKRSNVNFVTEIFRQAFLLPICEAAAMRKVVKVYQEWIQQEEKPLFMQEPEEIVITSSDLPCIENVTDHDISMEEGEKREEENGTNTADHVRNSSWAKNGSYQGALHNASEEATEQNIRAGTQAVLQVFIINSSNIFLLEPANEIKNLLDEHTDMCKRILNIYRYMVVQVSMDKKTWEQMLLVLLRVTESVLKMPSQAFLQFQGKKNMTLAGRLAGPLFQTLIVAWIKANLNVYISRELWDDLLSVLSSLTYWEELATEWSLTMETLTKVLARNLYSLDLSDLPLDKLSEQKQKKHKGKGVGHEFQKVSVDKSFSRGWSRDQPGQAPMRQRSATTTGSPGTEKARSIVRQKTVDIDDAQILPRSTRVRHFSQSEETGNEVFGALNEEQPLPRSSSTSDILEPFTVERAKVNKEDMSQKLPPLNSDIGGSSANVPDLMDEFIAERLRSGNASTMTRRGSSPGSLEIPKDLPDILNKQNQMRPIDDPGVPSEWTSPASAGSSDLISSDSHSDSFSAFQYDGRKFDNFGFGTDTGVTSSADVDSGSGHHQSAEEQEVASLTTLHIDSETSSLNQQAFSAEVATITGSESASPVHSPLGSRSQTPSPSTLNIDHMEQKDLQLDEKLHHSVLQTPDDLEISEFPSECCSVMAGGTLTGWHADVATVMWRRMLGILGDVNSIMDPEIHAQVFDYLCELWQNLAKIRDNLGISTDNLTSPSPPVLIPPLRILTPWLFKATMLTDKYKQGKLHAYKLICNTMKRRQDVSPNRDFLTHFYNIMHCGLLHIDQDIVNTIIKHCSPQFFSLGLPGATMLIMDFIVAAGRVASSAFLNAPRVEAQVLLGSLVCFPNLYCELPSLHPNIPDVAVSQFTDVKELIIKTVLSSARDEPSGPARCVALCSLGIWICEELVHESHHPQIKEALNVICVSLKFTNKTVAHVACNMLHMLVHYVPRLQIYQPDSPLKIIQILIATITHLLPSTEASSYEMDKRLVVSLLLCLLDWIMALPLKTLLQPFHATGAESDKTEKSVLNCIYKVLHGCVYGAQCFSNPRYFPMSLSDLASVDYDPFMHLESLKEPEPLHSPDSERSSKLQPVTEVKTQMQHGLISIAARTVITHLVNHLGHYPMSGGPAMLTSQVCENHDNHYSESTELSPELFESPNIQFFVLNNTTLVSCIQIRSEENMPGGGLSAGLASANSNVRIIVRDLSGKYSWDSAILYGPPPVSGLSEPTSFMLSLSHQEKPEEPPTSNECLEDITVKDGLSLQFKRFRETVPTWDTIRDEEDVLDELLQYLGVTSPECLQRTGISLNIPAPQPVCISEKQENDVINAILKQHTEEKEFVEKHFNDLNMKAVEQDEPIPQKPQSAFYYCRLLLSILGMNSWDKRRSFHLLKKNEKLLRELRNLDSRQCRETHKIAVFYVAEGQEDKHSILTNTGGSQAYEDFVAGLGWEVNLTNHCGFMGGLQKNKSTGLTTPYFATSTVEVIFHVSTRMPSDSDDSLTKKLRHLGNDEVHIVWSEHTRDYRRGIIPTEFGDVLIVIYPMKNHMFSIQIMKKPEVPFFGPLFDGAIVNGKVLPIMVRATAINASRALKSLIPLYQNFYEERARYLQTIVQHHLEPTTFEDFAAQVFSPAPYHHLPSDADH
Chain of proteins of U3A human fibrosarcoma cells (4462 proteins detected) (Homo sapiens, UniProt P49756) (P49756 whole entry): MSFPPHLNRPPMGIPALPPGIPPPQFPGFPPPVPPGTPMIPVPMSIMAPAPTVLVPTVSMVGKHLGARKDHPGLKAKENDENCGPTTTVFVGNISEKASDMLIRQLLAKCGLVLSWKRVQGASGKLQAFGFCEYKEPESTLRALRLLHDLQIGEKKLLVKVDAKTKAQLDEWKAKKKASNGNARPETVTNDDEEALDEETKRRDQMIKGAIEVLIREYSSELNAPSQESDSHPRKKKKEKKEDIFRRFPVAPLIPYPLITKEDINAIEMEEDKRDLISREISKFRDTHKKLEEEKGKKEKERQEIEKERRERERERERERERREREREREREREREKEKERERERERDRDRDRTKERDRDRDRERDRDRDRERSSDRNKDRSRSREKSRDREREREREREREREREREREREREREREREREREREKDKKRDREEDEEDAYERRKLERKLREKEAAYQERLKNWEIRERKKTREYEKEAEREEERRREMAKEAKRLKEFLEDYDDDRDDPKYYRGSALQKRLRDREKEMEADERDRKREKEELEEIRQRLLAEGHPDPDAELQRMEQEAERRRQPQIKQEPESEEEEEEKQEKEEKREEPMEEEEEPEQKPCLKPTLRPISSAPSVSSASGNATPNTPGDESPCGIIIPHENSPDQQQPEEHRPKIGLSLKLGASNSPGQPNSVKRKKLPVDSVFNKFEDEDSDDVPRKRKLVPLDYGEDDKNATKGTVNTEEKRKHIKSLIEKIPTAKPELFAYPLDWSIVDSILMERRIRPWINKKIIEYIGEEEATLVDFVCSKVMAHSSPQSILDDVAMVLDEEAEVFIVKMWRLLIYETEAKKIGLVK
Chain of proteins of U3A human fibrosarcoma cells (4462 proteins detected) (Homo sapiens, UniProt P08670) (P08670 whole entry): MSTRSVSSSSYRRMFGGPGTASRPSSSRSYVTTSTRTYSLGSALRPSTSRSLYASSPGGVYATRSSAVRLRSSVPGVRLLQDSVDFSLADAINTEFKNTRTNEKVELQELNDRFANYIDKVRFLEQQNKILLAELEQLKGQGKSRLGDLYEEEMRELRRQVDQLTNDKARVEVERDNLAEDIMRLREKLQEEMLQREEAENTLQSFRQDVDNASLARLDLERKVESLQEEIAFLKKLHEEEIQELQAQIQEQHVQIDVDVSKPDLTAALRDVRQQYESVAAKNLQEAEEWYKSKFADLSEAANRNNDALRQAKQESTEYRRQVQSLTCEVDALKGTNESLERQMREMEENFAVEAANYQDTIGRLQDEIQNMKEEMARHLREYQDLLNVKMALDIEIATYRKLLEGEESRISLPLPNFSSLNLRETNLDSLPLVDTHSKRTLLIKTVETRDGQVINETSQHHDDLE
Chain of proteins of U3A human fibrosarcoma cells (4462 proteins detected) (Homo sapiens, UniProt O75635) (O75635 whole entry): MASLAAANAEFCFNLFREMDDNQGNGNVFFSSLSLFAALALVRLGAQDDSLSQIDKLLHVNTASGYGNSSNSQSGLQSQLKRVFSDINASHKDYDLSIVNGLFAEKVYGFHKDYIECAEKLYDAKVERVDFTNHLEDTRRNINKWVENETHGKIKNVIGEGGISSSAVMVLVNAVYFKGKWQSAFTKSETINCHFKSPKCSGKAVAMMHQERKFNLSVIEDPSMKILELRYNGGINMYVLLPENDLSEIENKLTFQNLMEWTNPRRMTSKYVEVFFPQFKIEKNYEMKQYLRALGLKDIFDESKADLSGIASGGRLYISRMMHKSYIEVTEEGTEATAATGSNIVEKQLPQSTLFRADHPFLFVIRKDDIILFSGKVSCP
Chain of proteins of U3A human fibrosarcoma cells (4462 proteins detected) (Homo sapiens, UniProt P35250) (P35250 whole entry): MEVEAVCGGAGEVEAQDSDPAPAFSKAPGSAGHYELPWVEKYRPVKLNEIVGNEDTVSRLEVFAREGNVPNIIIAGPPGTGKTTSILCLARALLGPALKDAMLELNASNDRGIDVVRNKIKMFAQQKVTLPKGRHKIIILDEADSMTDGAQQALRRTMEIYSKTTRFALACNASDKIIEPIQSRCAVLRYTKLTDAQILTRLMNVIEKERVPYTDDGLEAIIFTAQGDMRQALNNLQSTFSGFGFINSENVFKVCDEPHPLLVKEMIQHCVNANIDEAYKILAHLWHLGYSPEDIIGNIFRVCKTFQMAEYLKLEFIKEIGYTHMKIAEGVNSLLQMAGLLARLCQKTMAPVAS
Chain of proteins of U3A human fibrosarcoma cells (4462 proteins detected) (Homo sapiens, UniProt Q9Y3C8) (Q9Y3C8 whole entry): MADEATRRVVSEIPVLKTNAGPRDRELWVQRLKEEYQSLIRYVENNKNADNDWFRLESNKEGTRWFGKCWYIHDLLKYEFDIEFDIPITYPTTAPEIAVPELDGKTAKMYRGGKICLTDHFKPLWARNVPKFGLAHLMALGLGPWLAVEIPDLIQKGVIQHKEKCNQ
Chain of proteins of U3A human fibrosarcoma cells (4462 proteins detected) (Homo sapiens, UniProt Q8NFH4) (Q8NFH4 whole entry): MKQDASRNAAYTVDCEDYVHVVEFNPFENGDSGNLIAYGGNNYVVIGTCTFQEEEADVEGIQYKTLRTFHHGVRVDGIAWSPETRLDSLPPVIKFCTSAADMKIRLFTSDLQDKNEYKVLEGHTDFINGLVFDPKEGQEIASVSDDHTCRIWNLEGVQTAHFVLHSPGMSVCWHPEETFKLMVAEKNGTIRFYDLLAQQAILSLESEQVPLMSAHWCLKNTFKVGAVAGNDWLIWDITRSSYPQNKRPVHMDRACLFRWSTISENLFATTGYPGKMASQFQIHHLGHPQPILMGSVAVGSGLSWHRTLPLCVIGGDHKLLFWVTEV

SMILES: CCc1nc(N)nc(N)c1-c1ccc(Cl)cc1 [pyrimethamine]
- Log2 (PYR/DMSO) [1]: 0.16
- Log2 (PYR/DMSO), RALGAPA1 [2]: -0.50
- Log2 (PYR/DMSO) [3]: 0.22
- Log2 (PYR/DMSO) [4]: 0.17
- Log2 (PYR/DMSO) [5]: 0.13
- Log2 (PYR/DMSO) [6]: 0.17
- Log2 (PYR/DMSO) [7]: 0.17
- Log2 (PYR/DMSO) [8]: 0.23
- Log2 (PYR/DMSO) [9]: 0.16
- Log2 (PYR/DMSO) [10]: -0.05
- Log2 (PYR/DMSO) [11]: -0.04
- Log2 (PYR/DMSO) [12]: 0.22
- Log2 (PYR/DMSO) [13]: 0.16
- Log2 (PYR/DMSO) [14]: 0.23
- Log2 (PYR/DMSO) [15]: -0.03
- Log2 (PYR/DMSO) [16]: -0.04
- Log2 (PYR/DMSO), SERPINB7 [17]: -0.19
- Log2 (PYR/DMSO), CEP192 [18]: -0.22
- Log2 (PYR/DMSO) [19]: 0.19
- Log2 (PYR/DMSO) [20]: 0.16
- Log2 (PYR/DMSO) [21]: -0.03
- Log2 (PYR/DMSO) [22]: -0.04
- Log2 (PYR/DMSO) [23]: 0.21
- Log2 (PYR/DMSO) [24]: 0.17
- Log2 (PYR/DMSO) [25]: -0.04
- Log2 (PYR/DMSO) [26]: -0.04
- Log2 (PYR/DMSO) [27]: 0.14
- Log2 (PYR/DMSO) [28]: 0.16
- Log2 (PYR/DMSO) [29]: 0.16
- Log2 (PYR/DMSO) [30]: 0.17
